# Source: patent US20230201217A1 (priority 2019, published 2023)
# Several values for one entry are separate records, joined by “and”; a condition that tells them apart may be missing. Equal values may be shown once.
# Experiments:
# [1] = target: T1, rat α3β4 nicotinic acetylcholine receptor (nAChR) (Rattus norvegicus, UniProt P04757+P12392); assay: cell-based
# T1 construct: expressed in transfected cells; host or cells: HEK 293 (ATCC CRL1573), transient, Lipofectamine 2000
# [2] = test system: male CD-1 mice; assay: Cardiovascular radiotelemetry in conscious CD-1 mice; format: in vivo, mouse
# From the text: The purpose of this study was to explore the physiological changes associated with mortality. Animals were implanted with a radiotelemetry transmitter in the peritoneal cavity with the catheter inserted in the femoral artery and the sensor tip positioned in the abdominal aorta. […] Within one hour of dosing, average heart rate (FIG. 14) decreased about 50%, and significant decreases in systolic (FIG. 15) and diastolic blood pressure (FIG. 16). In addition, body temperature generally dropped at each collection time point, reaching a maximum difference from baseline at 120 minutes post-dose (average change up to 6.5° C.). Following administration of the 200 mg/kg dose, body temperature continued to drop (up to 10.5° C.) until all mice died (˜12 hours post-dose). These changes in body temperature were considered test article-related and correlated to the observed changes in heart rate. Terminally, there was a further decrease in all of the parameters, with the rectal temperatures falling to as low as 22° C. before the mice died. Observed effects on behavior and activity included tremors, twitches, abnormal gait, lethargy, decreased motor activity, increased response to touch and startle, seizures, gasping and slow respirations, exophthalmia, and stupor.
# [3] = Stability of oral dosing solution; format: physicochemical
# From the text: (§1) Most preferably, an oral dose of the composition is used. An oral dosing formulation was validated by a GLP study.
# [4] = Solubility; format: physicochemical
# From the text: 18-MC HCl can be supplied as a dry powder packaged in double plastic bags in an HDPE bottle with desiccant. The 18-MC HCl can be formulated at the clinical site into a solution for dosing patients. […] Based on the properties of the compound, it can also be formulated in a solid oral formulation (tablet, capsule, sachets, granules, etc.)
# as §1
# [5] = test system: dopamine release in the nucleus accumbens shell; details: 40 mg/kg pretreatment, 19 hours beforehand; cited from earlier work
# [6] = Pharmacokinetics in rats; format: in vivo, rat
# Method: 18-MC is rapidly absorbed and distributed into the brain and fat tissues in rats dosed with 40 mg/kg p.o. or i.p. The estimated volume of distribution is 8 L/kg. 18-MC levels in fat were 4.2 μM and 2.5 μM at 2 hours and 24 hours, respectively. […] On oral administration, it appears that the major metabolites are either M4 or M5, depending on the animal species tested. M4 and M5 are the primary circulating drug species because they are present at proportions greater than 18-MC. […] In the animal species tested its half-life is less than 2 hours at lower doses. At high doses a long elimination phase is evident (ranging from 9 to 20 hours in rats). 18-MC is highly protein bound (95-98%).
# [7] = test system: rats, cocaine seeking behavior; details: 40 mg/kg i.p.; cited from earlier work
# [8] = target: CYP1A2 (Homo sapiens, UniProt P05177); details: recombinant enzyme
# Method: (§4) Control incubations were performed for each assay with appropriate positive inhibitory controls.
# [9] = target: CYP2B6 (Homo sapiens, UniProt P20813); details: recombinant enzyme
# Method: as §4
# [10] = test system: isolated rabbit Purkinje fibers; assay: Action potential duration in rabbit cardiac Purkinje fibers
# Method: The in vitro effect of 18-MC on the cardiac action potential was evaluated in isolated rabbit Purkinje fibers (FIG. 13). […] Fibers with resting potentials more negative than −80 mV and normal action potential morphology (APD90≥150 ms) were used in the study. Fibers were stimulated continuously at BCL of 1 second for at least 5 minutes. At the end of this period, baseline control APD rate dependence was measured using stimulus pulse trains consisting of approximately 50 pulses at BCL of 1 and 0.5 seconds. After returning to BCL of 1 second, 18-MC (or dl-sotalol) at the lowest concentration was applied for at least 20 minutes to allow equilibration, and the stimulus trains repeated. […] The average responses from the last five recorded action potentials from each stimulus train were analyzed for each test condition.
# Electrophysiological recordings were performed with four nominal concentrations of 18-MC (0.3, 1, 3, and 10 μM) added sequentially to four preparations at two stimulus intervals (basic cycle lengths of 1 s and 0.5 s). The effects of 18-MC on action potential parameters were compared to time-matched vehicle control sequences.
# [11] = test system: plasma protein; assay: Plasma protein binding, all species tested; format: in vitro ADME
# Method: In all the species tested in pre-clinical studies, 18-MC is rapidly absorbed following oral administration with Tmax occurring in less than 0.5 hours following oral administration. After oral administration, the elimination of 18-MC is multi-compartmental. In plasma, 18-MC is highly protein bound (92% to 98%). 18-MC is also rapidly and extensively metabolized, presumably by first pass metabolism. At least […] different metabolites have been detected both in vitro and in vivo, further described below (M1-M9, P1-P3). The major metabolites (those with exposure greater than 10% of the total drug related material) appear to change with the dose and duration of dosing. Major metabolites include M2, M4, M5, M8, M9 and P2 depending on the animal species tested, and the dose and duration of dosing.
# (§2) There is no information on the protein binding of any of the metabolites.
# [12] = target: CYP2C8 (Homo sapiens, UniProt P10632); details: recombinant enzyme
# Method: as §4
# [13] = Plasma 18-MC concentration in rats, 5-day dosing self-administration study
# Method: Blood samples were collected from animals immediately after their cocaine self-administration at approximately 2 hours post dose in the first day of dosing (Day 0), and the last day of dosing (Day 4).
# [14] = test system: adrenergic alpha-1 receptor; assay: In vitro radio-ligand assay; format: binding; details: 10 μM
# Method: (§3) The binding potential of 18-MC with 64 neurotransmitter-related binding sites was evaluated (TABLE 2).
# [15] = target: Mu opioid receptor (Homo sapiens, UniProt P35372); assay: In vitro radio-ligand assay; format: binding; details: 10 μM
# Method: as §3
# [16] = test system: sodium site 2 channel; assay: In vitro radio-ligand assay; format: binding; details: 10 μM
# Method: as §3
# [17] = test system: plasma protein; assay: Plasma protein binding; format: in vitro ADME, Rat
# From the text: as §2
# [18] = test system: plasma protein; assay: Plasma protein binding; format: in vitro ADME, Dog
# From the text: as §2
# [19] = Dose Day 0, post dose (~2 h), 600 mg/kg/day
# T1 sequence (P04757 26-499): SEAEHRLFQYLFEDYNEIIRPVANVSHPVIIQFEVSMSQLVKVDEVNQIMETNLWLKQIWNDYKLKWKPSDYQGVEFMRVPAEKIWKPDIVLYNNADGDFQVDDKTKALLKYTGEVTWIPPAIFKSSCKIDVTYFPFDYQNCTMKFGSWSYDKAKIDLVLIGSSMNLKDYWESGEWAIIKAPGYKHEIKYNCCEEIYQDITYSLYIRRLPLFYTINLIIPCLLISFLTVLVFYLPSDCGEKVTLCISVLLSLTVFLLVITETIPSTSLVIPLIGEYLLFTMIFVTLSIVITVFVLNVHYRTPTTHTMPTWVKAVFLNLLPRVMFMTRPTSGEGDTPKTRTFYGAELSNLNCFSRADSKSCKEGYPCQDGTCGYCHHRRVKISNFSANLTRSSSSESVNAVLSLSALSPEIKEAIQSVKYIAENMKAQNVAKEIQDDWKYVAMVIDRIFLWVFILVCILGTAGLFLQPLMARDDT
# T1 sequence (P12392 21-495): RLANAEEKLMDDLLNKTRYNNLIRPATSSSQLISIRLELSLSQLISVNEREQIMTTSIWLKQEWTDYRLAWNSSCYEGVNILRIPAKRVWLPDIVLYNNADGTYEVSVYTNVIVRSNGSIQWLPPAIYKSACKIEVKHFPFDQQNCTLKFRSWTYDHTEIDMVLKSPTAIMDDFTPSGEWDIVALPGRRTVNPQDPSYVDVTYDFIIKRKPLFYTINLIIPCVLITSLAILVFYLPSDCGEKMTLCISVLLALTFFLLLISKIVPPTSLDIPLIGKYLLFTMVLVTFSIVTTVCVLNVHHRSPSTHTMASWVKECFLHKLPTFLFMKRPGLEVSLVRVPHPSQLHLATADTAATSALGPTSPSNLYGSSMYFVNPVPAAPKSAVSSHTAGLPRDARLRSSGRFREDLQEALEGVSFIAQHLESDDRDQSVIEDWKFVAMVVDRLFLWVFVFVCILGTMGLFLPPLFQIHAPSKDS
# Mu opioid receptor, sequence (P35372 whole entry, species assumed): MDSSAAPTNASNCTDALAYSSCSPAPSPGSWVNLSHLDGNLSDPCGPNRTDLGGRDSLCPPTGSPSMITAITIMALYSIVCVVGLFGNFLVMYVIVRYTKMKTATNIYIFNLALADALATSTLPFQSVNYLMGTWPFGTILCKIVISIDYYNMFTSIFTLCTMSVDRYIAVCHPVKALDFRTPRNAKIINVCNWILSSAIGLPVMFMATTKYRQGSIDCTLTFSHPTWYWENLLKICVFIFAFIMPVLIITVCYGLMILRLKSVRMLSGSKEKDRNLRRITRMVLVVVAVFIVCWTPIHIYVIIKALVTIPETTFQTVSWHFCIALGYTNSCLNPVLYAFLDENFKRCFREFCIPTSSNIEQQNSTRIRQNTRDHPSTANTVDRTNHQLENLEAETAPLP
# CYP2C8, sequence (P10632 whole entry): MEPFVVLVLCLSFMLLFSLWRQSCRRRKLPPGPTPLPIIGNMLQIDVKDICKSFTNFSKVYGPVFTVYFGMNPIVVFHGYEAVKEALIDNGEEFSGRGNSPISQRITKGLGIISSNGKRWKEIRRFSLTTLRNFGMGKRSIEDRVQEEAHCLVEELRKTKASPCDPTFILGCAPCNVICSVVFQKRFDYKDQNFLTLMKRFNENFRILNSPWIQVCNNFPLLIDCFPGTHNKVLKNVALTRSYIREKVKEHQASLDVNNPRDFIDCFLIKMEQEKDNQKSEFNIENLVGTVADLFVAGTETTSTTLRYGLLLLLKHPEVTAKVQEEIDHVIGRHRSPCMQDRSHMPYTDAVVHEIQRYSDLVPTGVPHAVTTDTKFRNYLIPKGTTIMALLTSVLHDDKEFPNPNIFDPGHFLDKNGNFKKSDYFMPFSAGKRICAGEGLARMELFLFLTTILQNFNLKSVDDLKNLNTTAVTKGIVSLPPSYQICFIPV
# CYP1A2, sequence (P05177 whole entry): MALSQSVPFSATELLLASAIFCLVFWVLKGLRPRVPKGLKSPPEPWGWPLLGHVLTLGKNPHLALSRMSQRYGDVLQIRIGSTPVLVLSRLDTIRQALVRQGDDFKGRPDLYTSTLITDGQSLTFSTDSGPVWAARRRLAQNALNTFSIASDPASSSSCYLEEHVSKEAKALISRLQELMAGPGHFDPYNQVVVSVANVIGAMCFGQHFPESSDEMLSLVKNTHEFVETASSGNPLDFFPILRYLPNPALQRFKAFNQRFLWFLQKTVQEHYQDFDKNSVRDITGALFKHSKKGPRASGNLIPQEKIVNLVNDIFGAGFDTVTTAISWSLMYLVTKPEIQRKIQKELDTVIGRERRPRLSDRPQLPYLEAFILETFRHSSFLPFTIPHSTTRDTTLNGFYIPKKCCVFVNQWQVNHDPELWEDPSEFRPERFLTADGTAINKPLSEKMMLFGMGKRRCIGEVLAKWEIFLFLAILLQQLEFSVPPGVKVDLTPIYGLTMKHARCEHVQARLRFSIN
# CYP2B6, sequence (P20813 whole entry): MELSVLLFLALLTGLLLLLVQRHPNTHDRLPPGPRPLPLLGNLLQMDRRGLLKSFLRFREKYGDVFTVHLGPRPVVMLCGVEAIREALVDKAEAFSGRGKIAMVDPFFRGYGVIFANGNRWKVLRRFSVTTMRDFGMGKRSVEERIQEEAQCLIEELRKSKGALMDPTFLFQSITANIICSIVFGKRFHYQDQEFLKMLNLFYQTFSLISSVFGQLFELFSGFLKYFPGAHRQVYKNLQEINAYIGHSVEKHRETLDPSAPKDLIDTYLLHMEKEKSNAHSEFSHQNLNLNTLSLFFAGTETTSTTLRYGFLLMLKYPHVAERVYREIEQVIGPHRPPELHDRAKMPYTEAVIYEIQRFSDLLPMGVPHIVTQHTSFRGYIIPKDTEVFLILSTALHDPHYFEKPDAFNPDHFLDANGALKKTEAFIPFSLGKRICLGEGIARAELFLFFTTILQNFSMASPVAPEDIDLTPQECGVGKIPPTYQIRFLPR
compound,measurement,setting,value
"COCCC1CC2CN3CCc4c([nH]c5ccccc45)C(C(=O)OC)(C2)C13.Cl (stereo not shown) [18-MC HCl, 18-Methoxycoronaridine hydrochloride]",Max Inhibition 20-30 μM,[1],98 ± 1%
same,Persistent Inhibition at 1 sec,[1],88 ± 3%
same,average change in body temperature from baseline,"[2]; 100 mg/kg, 120 minutes post-dose",up to 6.5 °C
same,mortality,[2]; after 100 mg/kg oral dose,Two of the 6 animals died
same,mortality,[2]; after the 200 mg/kg dose (8 hours after 100 mg/kg),all of the other animals died
same,"rectal temperature, terminal",[2]; before the mice died,≥ 22 °C
same,drop in body temperature,[2]; following the 200 mg/kg dose,up to 10.5 °C
same,decrease in average heart rate,[2]; within one hour of dosing,about 50%
same,stability of dosing solution,[3]; after 3 freeze-thaw (20° C.) cycles,met the required stability criteria
same,"homogeneity, concentration acceptability, solubility and stability of dosing formulation",[3]; after 10 days of refrigerated storage,met the applicable ICH criteria
same,solubility in dimethyl sulfoxide (DMSO),[4],freely soluble
same,maximum solubility,[4]; 5% dextrose (pH 3.0),40 mg/mL
same,solubility in aqueous solution,[4]; neutral and alkaline pH,poorly soluble
same,acute dopamine response to cocaine,[5],little effect
same,sensitized dopamine response to cocaine,[5],abolished the sensitized dopamine response
same,oral bioavailability,[6]; 60 mg/kg,about 8%
same,reinstatement effect of cues associated with cocaine self-administration,[7],blocked the reinstatement effect
"COCC[C@H]1CC2CN3CCc4c([nH]c5ccccc45)[C@](C(=O)OC)(C2)[C@H]13 [18-MC, 18-methoxycoronaridine]",Ipeak,[1],50 ± 4% of ACh
same,Iss,[1],34 ± 5% of peak
same,τdecay,[1],298 ± 23 ms
same,IC50,"[1]; read-out: IC50, inhibition of ACh-evoked currents",0.8 µM
same,IC50,[8],> 100 µM
same,IC50,[9],> 100 µM
same,APD60,"[10]; 3 μM, 1 second BCL",statistically significant (p<0.05) shortening
same,APD60,"[10]; 10 μM, 0.5 and 1 s BCL",statistically significant (P<0.05) shortening
same,"resting membrane potential, action potential amplitude, Vmax","[10]; any concentration tested, two stimulus intervals",did not induce significant changes
same,protein bound in plasma,[11],95-98% and 92-98%
same,IC50,[12],19 µM
same,"Plasma 18-MC concentration, Average",[13]; [19],"11,442 ng/mL"
same,"Plasma 18-MC concentration, individual animals",[13]; [19],"3,450 ng/mL and 12,600 ng/mL and 11,300 ng/mL and 13,900 ng/mL and 14,200 ng/mL and 13,200 ng/mL"
same,"Plasma 18-MC concentration, Average","[13]; Dose Day 4, post dose","7,524 ng/mL"
same,"Plasma 18-MC concentration, individual animals","[13]; Dose Day 4, post dose","9,030 ng/mL and 3,760 ng/mL and 8,040 ng/mL and 10,500 ng/mL and 6,290 ng/mL"
same,"Plasma 18-MC concentration, Average","[13]; Dose Day 4, pre dose","2,998 ng/mL"
same,"Plasma 18-MC concentration, individual animals","[13]; Dose Day 4, pre dose","3,840 ng/mL and 1,680 ng/mL and 3,020 ng/mL and 2,720 ng/mL and 3,730 ng/mL"
same,binding,[14],binding was seen
same,binding,[15],binding was seen
same,binding,[16],binding was seen
same,% Bound Mean ± SD,[17]; 200 ng/mL,92.9 ± 0.351%
same,% Bound Mean ± SD,[17]; 600 ng/mL,94.9 ± 0.794%
same,% Bound Mean ± SD,"[17]; 5,000 ng/mL",90.2 ± 0.153%
same,Average % Bound Mean ± SD,[17]; average of 3 concentrations,92.7 ± 2.36%
same,estimated volume of distribution,[6]; 40 mg/kg p.o. or i.p.,8 L/kg
same,oral bioavailability for total drug substance (AUC of 18-MC and its metabolites),[6]; 60 mg/kg,about 25%
same,18-MC level in fat,[6]; 2 hours,4.2 µM
same,18-MC level in fat,[6]; 24 hours,2.5 µM
same,% Bound Mean ± SD,[18]; 200 ng/mL,92.1 ± 1.78%
same,% Bound Mean ± SD,[18]; 600 ng/mL,94.8 ± 1.42%
same,% Bound Mean ± SD,"[18]; 5,000 ng/mL",93.2 ± 0.153%
same,Average % Bound Mean ± SD,[18]; average of 3 concentrations,93.4 ± 1.36%
